# Measured values: patent publication US7951560B2, “Delta 4,5 glycuronidase compositions and methods related thereto” (Massachusetts Institute of Technology, priority 2002, dated 2011)
# T1: recombinant Δ4, 5 glycuronidase (Δ4,5^Δ20) (Pedobacter heparinus, UniProt C6Y1N7)
# T1 sequence (C6Y1N7 21-402): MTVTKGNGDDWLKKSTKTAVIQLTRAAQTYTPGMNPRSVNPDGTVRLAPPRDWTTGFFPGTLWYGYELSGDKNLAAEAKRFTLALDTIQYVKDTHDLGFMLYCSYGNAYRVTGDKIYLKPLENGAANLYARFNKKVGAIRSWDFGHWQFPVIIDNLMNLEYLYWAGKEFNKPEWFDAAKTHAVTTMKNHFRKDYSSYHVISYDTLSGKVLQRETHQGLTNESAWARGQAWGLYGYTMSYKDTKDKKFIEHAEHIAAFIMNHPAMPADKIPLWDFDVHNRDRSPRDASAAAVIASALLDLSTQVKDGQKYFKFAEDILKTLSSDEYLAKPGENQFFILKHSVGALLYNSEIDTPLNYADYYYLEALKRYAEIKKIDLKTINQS
# B1: full-length enzyme: full-length 402 amino acid Δ4, 5 glycuronidase, SEQ ID NO:3, expressed as N-terminal 6× His-tag fusion (protein, listed as Flavobacterium heparinum)
# chain: MKSLLSAFVATIALIGSANGMTVTKGNGDDWLKKSTKTAVIQLTRAAQTYTPGMNPRSVNPDGTVRLAPPRDWTTGFFPGTLWYGYELSGDKNLAAEAKRFTLALDTIQYVKDTHDLGFMLYCSYGNAYRVTGDKIYLKPLENGAANLYARFNKKVGAIRSWDFGHWQFPVIIDNLMNLEYLYWAGKEFNKPEWFDAAKTHAVTTMKNHFRKDYSSYHVISYDTLSGKVLQRETHQGLTNESAWARGQAWGLYGYTMSYKDTKDKKFIEHAEHIAAFIMNHPAMPADKIPLWDFDVHNRDRSPRDASAAAVIASALLDLSTQVKDGQKYFKFAEDILKTLSSDEYLAKPGENQFFILKHSVGALLYNSEIDTPLNYADYYYLEALKRYAEIKKIDLKTINQS
# modifications: N-terminal 6xHis tag
# Key:
# [1] = target: T1, recombinant Δ4, 5 glycuronidase (Δ4,5^Δ20); assay: Kinetic parameters of Δ4, 5 glycuronidase for disaccharide substrates (loss of absorbance at 232 nm, Michaelis-Menten fit); assay type: biochemical, F. heparinum; details: conditions for measuring substrate kinetics
# Method: Assay for enzyme activity and determination of kinetic parameters. Standard reactions were carried out at 30° C. and included 100 mM sodium phosphate buffer, pH 6.4, 50 mM NaCl, 500 μM disaccharide substrate and 200 nM enzyme in a 100 μl reaction volume. Hydrolysis of heparin disaccharides was determined spectrophotometrically by measuring the loss of the Δ4, 5 chromophore measured at 232 nm Substrate hydrolysis was calculated using the following molar extinction coefficients empirically determined for each disaccharide substrate: ΔUHNAc, ε232=4,524; ΔUHNAc6S, ε232=4,300; ΔUHNS, ε232=6,600; ΔUHNS,6S, ε232=6,075; ΔUHNH26S, ε232=4,826; ΔU2SHNS, ε232=4,433. Initial rates (Vo) were extrapolated from linear activities representing <10% substrate turnover and fit to pseudo first-order kinetics. For kinetic experiments, disaccharide concentration for each respective substrate was varied from 48 to 400 μM concentrations. Km and kcat values were extrapolated from Vo vs. [S] curves fit to the Michaelis Menten equation by a non-linear, least squares regression.
# The specificity of the Δ4, 5 glycuronidase acting on various glycosaminoglycan disaccharide substrates was investigated. The various substrates examined included both heparin and chondroitin disaccharides as well as an hyaluronadate. In particular, we considered the possibility of any structural discriminations pertaining to glycosidic linkage position (1→4 vs. 1→3) and relative sulfation state within the disaccharide. For each substrate, kinetic parameters were determined based on substrate saturation profiles that fit Michaelis-Menten assumptions (FIG. 8).
# Δ4, 5 glycuronidase [2] = assay: Detection of Δ4, 5 glycuronidase activity by capillary electrophoresis on heparinase-digested heparin; assay type: biochemical, F. heparinum
# Method: Detection of Δ4, 5 glycuronidase activity by capillary electrophoresis. 200 μg of heparin (Celsus Laboratories) was subject to exhaustive heparinase digestion as described [Venkataraman, G., Shriver, Z., Raman, R., and Sasisekharan, R., 1999, Science 286, 537-42] with certain modifications that included a 50 mM PIPES buffer, pH 6.5 with 100 mM NaCl in a 100 μl reaction volume. Following heparinase treatment, 25 picomoles of Δ4, 5 glycuronidase was added to one-half of the original reaction (pre-equilibrated at 30° C.). 20 μl aliquots were removed at 1 minute and 30 minutes and activity quenched by heating at 95° C. for 10 minutes. 20 μl of the minus Δ4, 5 control (also heated for 10 minutes) was used as the 0 time point. Disaccharide products were resolved by capillary electrophoresis run for 25 minutes under positive polarity mode as previously described [Rhomberg, A. J., Ernst, S., Sasisekharan, R., and Biemann, K., 1998, Proc Natl Acad Sci USA 95, 4176-81].
# In this manner, the Δ4, 5 should be very useful in assessing the composition of disaccharides resulting from prior heparinase treatment of heparin/heparan sulfate. For this particular experiment, we pre-treated 200 μg of heparin with a heparinase cocktail. This exhaustive digestion was then directly followed by a relatively short (1 minute) or long (30 minute) Δ4, 5 glycuronidase treatment carried out under optimal reaction conditions. The disaccharide products were then resolved by capillary electrophoresis. The electrophoretic mobility profile for the Δ4, 5 treated saccharides were then directly compared to the untreated control (i.e., heparinase treatment only) run under identical conditions (FIG. 9). 7 disaccharide peaks were present in the capillary electrophoretogram corresponding to the heparinase only control (A.). A structural assignment for each one of these peaks was made based on previously established compositional analyses. […] Predictably, the relative amplitude and area of these peaks remained the same, over the entire timecourse of the Δ4, 5 preincubation. This unchanging result extended to 18 hours. On the other hand, peaks corresponding to disaccharides lacking the 2-O sulfate were eliminated.
# Δ4, 5 glycuronidase [3] = assay: Extended timecourse hydrolysis of non-heparin disaccharides; assay type: biochemical, F. heparinum; details: after approximately 18 hours, considerably higher enzyme concentrations
# Method: None of the non-heparin disaccharides were hydrolyzed under the conditions for measuring substrate kinetics. […] At the same time, these disaccharides were slowly hydrolyzed to varying degrees when the enzyme reactions were conducted over a much longer timecourse (>12 hours) and at considerably higher enzyme concentrations. After approximately 18 hours, greater than 80% of monosulfated chondroitin disaccharide (ΔUGalNac6S) was hydrolyzed, whereas the non-sulfated chondroitin (ΔUGalNAc) and the hyaluronan disaccharide (ΔUH) were still present at approximately 40% and 65%, respectively. The importance of the linkage position is, therefore, not absolute. The apparently positive effect of chondroitin 6-O-sulfation within the galactosamine is consistent with our results for the heparin substrates and provides further evidence for the influence of this position in dictating substrate specificity.
# [4] = Pilot expression of the full-length enzyme in E. coli: solubility and activity
# Text: Using PCR, we cloned from the F. heparinum genome both the full-length enzyme and the “mature” enzyme lacking the N-terminal 20 amino acid signal sequence (Δ4,5^Δ20) into a T7-based expression plasmid. Cloning into pET28a permitted the expression of the glycuronidase as an N-terminal 6× His-tag fusion protein. Pilot expression studies focused on the full-length enzyme. In these initial experiments, we examined several different induction conditions such as temperature, time and length of induction, and even IPTG concentrations.
molecule,measurement,setting,value
"N[C@H]1C(O)O[C@H](COS(=O)(=O)O)[C@@H](O[C@@H]2OC(C(=O)O)=C[C@H](O)[C@H]2O)[C@@H]1O (stereo partly shown) [ΔUHNH2, 6S]",substrate status / substrate preference,[1],less good as substrates
"O=C(O)C1=C[C@H](O)[C@@H](O)[C@H](O[C@H]2[C@H](O)[C@@H](NS(=O)(=O)O)C(O)O[C@@H]2COS(=O)(=O)O)O1 (stereo partly shown) [ΔUHNS, 6S]",substrate status / substrate preference,[1],roughly in the middle
same,"hydrolysis by 30 minutes Δ4, 5 treatment","Δ4, 5 glycuronidase [2]",completely depleted
same,"hydrolyzed after 1 minute Δ4, 5 treatment","Δ4, 5 glycuronidase [2]",approximately 75%
CC(=O)NC1C(O)OC(CO)C(O)C1OC1OC(C(=O)O)=CC(O)C1O (stereo not shown) [ΔUH],disaccharide still present,"Δ4, 5 glycuronidase [3]",~65%
O=C(O)C1=C[C@H](O)[C@@H](OS(=O)(=O)O)[C@H](O[C@H]2[C@H](O)[C@@H](NS(=O)(=O)O)[C@@H](O)O[C@@H]2CO)O1 [ΔU2SHNS],substrate status / substrate preference,[1],not a substrate
CC(=O)NC1C(O)OC(CO)C(O)C1OC1OC(C(=O)O)=CC(O)C1O (stereo not shown) [ΔUGalNAc],disaccharide still present,"Δ4, 5 glycuronidase [3]",approximately 40%
"CC(=O)N[C@H]1C(O)O[C@H](COS(=O)(=O)O)[C@@H](O[C@@H]2OC(C(=O)O)=C[C@H](O)[C@H]2O)[C@@H]1O (stereo partly shown) [ΔUHNAc, 6S]",substrate status / substrate preference,[1],best substrates
same,"hydrolysis after one minute Δ4, 5 treatment (in words)","Δ4, 5 glycuronidase [2]",essentially hydrolyzed
O=C(O)C1=C[C@H](O)[C@@H](O)[C@H](O[C@H]2[C@H](O)[C@@H](NS(=O)(=O)O)C(O)O[C@@H]2CO)O1 (stereo partly shown) [ΔUHNS],substrate status / substrate preference,[1],less good as substrates
same,"hydrolysis by 30 minutes Δ4, 5 treatment","Δ4, 5 glycuronidase [2]",completely depleted
same,"hydrolyzed after 1 minute Δ4, 5 treatment","Δ4, 5 glycuronidase [2]",~50%
CC(=O)N[C@H]1C(O)O[C@H](COS(=O)(=O)[O-])[C@H](O)[C@@H]1OC1OC(C(=O)[O-])=C[C@H](O)[C@H]1O.[Na+].[Na+] (stereo partly shown) [ΔUGalNac6S],disaccharide hydrolyzed,"Δ4, 5 glycuronidase [3]",greater than 80%
CC(=O)N[C@H]1C(O)O[C@H](CO)[C@@H](O[C@@H]2OC(C(=O)O)=C[C@H](O)[C@H]2O)[C@@H]1O (stereo partly shown) [ΔUHNac],substrate status / substrate preference,[1],best substrates
B1,solubility on recombinant expression,"[4]; N-terminal 6× His-tag fusion, all induction conditions examined",nearly exclusively as an insoluble fraction
same,"activity of partially purified, solubilised enzyme","[4]; solubilised with detergents (e.g., CHAPS), salt, glycerol",largely inactive
